According to ChEMBL document CHEMBL5344420, “Flexibility in the bridge of chalcone derivatives is important for the inhibition of cellular growth” (Bioorg Med Chem Lett, 2023):

System: A549
Test: Antiproliferative activity against human A549 cells assessed as cell growth inhibition measured after 48 hrs by CellTiter Aqueous One Solution MTS assay
Assay type: functional, cell-based
Conditions: A549, 48 h

Question: `O=C1/C(=C/c2ccc(O)cc2)CCc2ccccc21` was tested. Which IC50 did it give?
Answer: > 30 µM

Question: For `COc1ccc(/C=C2\CCc3ccccc3C2=O)cc1`, which IC50 is on record?
Answer: > 30 µM

Question: Which IC50 does the source give for `Cc1ccc(/C=C2\Cc3ccccc3C2=O)cc1` here?
Answer: > 30 µM

Question: `O=C1/C(=C/c2ccccc2)Cc2ccccc21` was tested. Which IC50 did it give?
Answer: > 30 µM

Question: `O=C1/C(=C/c2ccccc2)CCc2ccccc21` was tested. Which IC50 did it give?
Answer: > 30 µM

Question: `O=C1/C(=C/c2ccc(F)cc2)CCc2ccccc21` was tested. Which IC50 did it give?
Answer: > 30 µM

Question: For `Cc1ccc(/C=C2\CCc3ccccc3C2=O)cc1`, which IC50 is on record?
Answer: > 30 µM

Question: With `O=C1/C(=C/c2ccc(F)cc2)Cc2ccccc21` as the compound, how does the IC50 read?
Answer: > 30 µM

Question: How did the IC50 turn out when `COc1ccc(/C=C2\Cc3ccccc3C2=O)cc1` was run?
Answer: > 30 µM

Question: How did the IC50 turn out when `Cc1ccc(/C=C/C(=O)c2ccccc2)cc1` was run?
Answer: 16.8 µM

Question: `O=C1/C(=C/c2ccc(OC(F)(F)F)cc2)Cc2ccccc21` was tested. Which IC50 did it give?
Answer: > 30 µM

Question: `O=C(/C=C/c1ccc(OC(F)(F)F)cc1)c1ccccc1` was tested. Which IC50 did it give?
Answer: 5.35 µM

Question: `O=C1/C(=C/c2ccc(O)cc2)Cc2ccccc21` was tested. Which IC50 did it give?
Answer: > 30 µM

Question: With `O=C1/C(=C/c2ccc(OC(F)(F)F)cc2)CCc2ccccc21` as the compound, how does the IC50 read?
Answer: > 30 µM

Question: For `O=C(/C=C/c1ccc(O)cc1)c1ccccc1` [4-HYDROXYCHALCONE], which IC50 is on record?
Answer: 26.6 µM

Question: With `COc1ccc(/C=C/C(=O)c2ccccc2)cc1` [4-METHOXY CHALCONE] as the compound, how does the IC50 read?
Answer: 5.2 µM

Question: `O=C(/C=C/c1ccccc1)c1ccccc1` [CHALCONE] was tested. Which IC50 did it give?
Answer: 12.2 µM
